Laboratory results reported in ChEMBL document CHEMBL5724914, “Linking interpersonal differences in gut microbiota composition and drug biotransformation activity” (2024).

Conditions: human gut metagenome, 24 h, 2 µM
Further: call rule not given here.

| Bacterial Biotransformation | SMILES |
| --- | --- |
| Compound metabolized | COc1ccc2cc([C@H](C)C(=O)O)ccc2c1 [NAPROXEN] |
| Compound metabolized | C#C[C@]1(OC(C)=O)CC[C@H]2[C@@H]3CCC4=C/C(=N/O)CC[C@@H]4[C@H]3CC[C@@]21CC [NORGESTIMATE] |

Assay: (§1) The drug is tested on Z-025 corresponding to rabbit gut metagenome with ENA study accession number: PRJEB37062 and ENA sample accession number: ERS12561824 for biotransformation under anaerobic condition. The drug concentrations were measured over 9 timepoints collected between 0 and 24 hours of incubation by liquid-chromatography-coupled mass spectrometry (LC–MS)
Conditions: 2 µM

| Bacterial Biotransformation | SMILES |
| --- | --- |
| Compound NOT metabolized | COc1ccc2cc([C@H](C)C(=O)O)ccc2c1 [NAPROXEN] |
| Compound NOT metabolized | C#C[C@]1(OC(C)=O)CC[C@H]2[C@@H]3CCC4=C/C(=N/O)CC[C@@H]4[C@H]3CC[C@@]21CC [NORGESTIMATE] |

Assay: as §1, with “Z-030” for “Z-025”, “mouse” for “rabbit”, “ERS12561829” for “ERS12561824”
Conditions: 2 µM

| Bacterial Biotransformation | SMILES |
| --- | --- |
| Compound NOT metabolized | COc1ccc2cc([C@H](C)C(=O)O)ccc2c1 [NAPROXEN] |
| Compound metabolized | C#C[C@]1(OC(C)=O)CC[C@H]2[C@@H]3CCC4=C/C(=N/O)CC[C@@H]4[C@H]3CC[C@@]21CC [NORGESTIMATE] |

Conditions: human gut metagenome, 24 h, 2 µM
Remark: another data set of the same source

| Bacterial Biotransformation | SMILES |
| --- | --- |
| Compound metabolized | COc1ccc2cc([C@H](C)C(=O)O)ccc2c1 [NAPROXEN] |
| Compound NOT metabolized | C#C[C@]1(OC(C)=O)CC[C@H]2[C@@H]3CCC4=C/C(=N/O)CC[C@@H]4[C@H]3CC[C@@]21CC [NORGESTIMATE] |

Conditions: human gut metagenome, 24 h, 2 µM
Remark: another data set of the same source

| Bacterial Biotransformation | SMILES |
| --- | --- |
| Compound NOT metabolized | COc1ccc2cc([C@H](C)C(=O)O)ccc2c1 [NAPROXEN] |
| Compound metabolized | C#C[C@]1(OC(C)=O)CC[C@H]2[C@@H]3CCC4=C/C(=N/O)CC[C@@H]4[C@H]3CC[C@@]21CC [NORGESTIMATE] |

Conditions: human gut metagenome, 24 h, 2 µM
Remark: another data set of the same source

| Bacterial Biotransformation | SMILES |
| --- | --- |
| Compound metabolized | COc1ccc2cc([C@H](C)C(=O)O)ccc2c1 [NAPROXEN] |
| Compound metabolized | C#C[C@]1(OC(C)=O)CC[C@H]2[C@@H]3CCC4=C/C(=N/O)CC[C@@H]4[C@H]3CC[C@@]21CC [NORGESTIMATE] |

Conditions: human gut metagenome, 24 h, 2 µM
Remark: another data set of the same source

| Bacterial Biotransformation | SMILES |
| --- | --- |
| Compound metabolized | COc1ccc2cc([C@H](C)C(=O)O)ccc2c1 [NAPROXEN] |
| Compound metabolized | C#C[C@]1(OC(C)=O)CC[C@H]2[C@@H]3CCC4=C/C(=N/O)CC[C@@H]4[C@H]3CC[C@@]21CC [NORGESTIMATE] |

Conditions: human gut metagenome, 24 h, 2 µM
Remark: another data set of the same source

| Bacterial Biotransformation | SMILES |
| --- | --- |
| Compound metabolized | COc1ccc2cc([C@H](C)C(=O)O)ccc2c1 [NAPROXEN] |
| Compound metabolized | C#C[C@]1(OC(C)=O)CC[C@H]2[C@@H]3CCC4=C/C(=N/O)CC[C@@H]4[C@H]3CC[C@@]21CC [NORGESTIMATE] |

Conditions: human gut metagenome, 24 h, 2 µM
Remark: another data set of the same source

| Bacterial Biotransformation | SMILES |
| --- | --- |
| Compound metabolized | COc1ccc2cc([C@H](C)C(=O)O)ccc2c1 [NAPROXEN] |
| Compound NOT metabolized | C#C[C@]1(OC(C)=O)CC[C@H]2[C@@H]3CCC4=C/C(=N/O)CC[C@@H]4[C@H]3CC[C@@]21CC [NORGESTIMATE] |

Conditions: human gut metagenome, 24 h, 2 µM
Remark: another data set of the same source

| Bacterial Biotransformation | SMILES |
| --- | --- |
| Compound metabolized | COc1ccc2cc([C@H](C)C(=O)O)ccc2c1 [NAPROXEN] |
| Compound metabolized | C#C[C@]1(OC(C)=O)CC[C@H]2[C@@H]3CCC4=C/C(=N/O)CC[C@@H]4[C@H]3CC[C@@]21CC [NORGESTIMATE] |

Assay: as §1, with “WLS-069” for “Z-025”, “human” for “rabbit”, “ERS12561748” for “ERS12561824”
Conditions: 2 µM

| Bacterial Biotransformation | SMILES |
| --- | --- |
| Compound metabolized | COc1ccc2cc([C@H](C)C(=O)O)ccc2c1 [NAPROXEN] |
| Compound metabolized | C#C[C@]1(OC(C)=O)CC[C@H]2[C@@H]3CCC4=C/C(=N/O)CC[C@@H]4[C@H]3CC[C@@]21CC [NORGESTIMATE] |

Assay: as §1, with “WLS-039” for “Z-025”, “human” for “rabbit”, “ERS12561746” for “ERS12561824”
Conditions: 2 µM

| Bacterial Biotransformation | SMILES |
| --- | --- |
| Compound metabolized | COc1ccc2cc([C@H](C)C(=O)O)ccc2c1 [NAPROXEN] |
| Compound metabolized | C#C[C@]1(OC(C)=O)CC[C@H]2[C@@H]3CCC4=C/C(=N/O)CC[C@@H]4[C@H]3CC[C@@]21CC [NORGESTIMATE] |

Conditions: human gut metagenome, 24 h, 2 µM
Remark: another data set of the same source

| Bacterial Biotransformation | SMILES |
| --- | --- |
| Compound metabolized | COc1ccc2cc([C@H](C)C(=O)O)ccc2c1 [NAPROXEN] |
| Compound metabolized | C#C[C@]1(OC(C)=O)CC[C@H]2[C@@H]3CCC4=C/C(=N/O)CC[C@@H]4[C@H]3CC[C@@]21CC [NORGESTIMATE] |

Conditions: human gut metagenome, 24 h, 2 µM
Remark: another data set of the same source

| Bacterial Biotransformation | SMILES |
| --- | --- |
| Compound metabolized | COc1ccc2cc([C@H](C)C(=O)O)ccc2c1 [NAPROXEN] |
| Compound metabolized | C#C[C@]1(OC(C)=O)CC[C@H]2[C@@H]3CCC4=C/C(=N/O)CC[C@@H]4[C@H]3CC[C@@]21CC [NORGESTIMATE] |

Assay: as §1, with “WLS-038” for “Z-025”, “human” for “rabbit”, “ERS12561745” for “ERS12561824”
Conditions: 2 µM

| Bacterial Biotransformation | SMILES |
| --- | --- |
| Compound NOT metabolized | COc1ccc2cc([C@H](C)C(=O)O)ccc2c1 [NAPROXEN] |
| Compound metabolized | C#C[C@]1(OC(C)=O)CC[C@H]2[C@@H]3CCC4=C/C(=N/O)CC[C@@H]4[C@H]3CC[C@@]21CC [NORGESTIMATE] |

Assay: as §1, with “Z-017” for “Z-025”, “mouse” for “rabbit”, “ERS12561816” for “ERS12561824”
Conditions: 2 µM

| Bacterial Biotransformation | SMILES |
| --- | --- |
| Compound NOT metabolized | COc1ccc2cc([C@H](C)C(=O)O)ccc2c1 [NAPROXEN] |
| Compound NOT metabolized | C#C[C@]1(OC(C)=O)CC[C@H]2[C@@H]3CCC4=C/C(=N/O)CC[C@@H]4[C@H]3CC[C@@]21CC [NORGESTIMATE] |

Assay: as §1, with “Z-001” for “Z-025”, “mouse” for “rabbit”, “ERS12561801” for “ERS12561824”
Conditions: 2 µM

| Bacterial Biotransformation | SMILES |
| --- | --- |
| Compound NOT metabolized | COc1ccc2cc([C@H](C)C(=O)O)ccc2c1 [NAPROXEN] |
| Compound NOT metabolized | C#C[C@]1(OC(C)=O)CC[C@H]2[C@@H]3CCC4=C/C(=N/O)CC[C@@H]4[C@H]3CC[C@@]21CC [NORGESTIMATE] |

Conditions: human gut metagenome, 24 h, 2 µM
Remark: another data set of the same source

| Bacterial Biotransformation | SMILES |
| --- | --- |
| Compound metabolized | COc1ccc2cc([C@H](C)C(=O)O)ccc2c1 [NAPROXEN] |
| Compound metabolized | C#C[C@]1(OC(C)=O)CC[C@H]2[C@@H]3CCC4=C/C(=N/O)CC[C@@H]4[C@H]3CC[C@@]21CC [NORGESTIMATE] |

Conditions: human gut metagenome, 24 h, 2 µM
Remark: another data set of the same source

| Bacterial Biotransformation | SMILES |
| --- | --- |
| Compound NOT metabolized | COc1ccc2cc([C@H](C)C(=O)O)ccc2c1 [NAPROXEN] |
| Compound metabolized | C#C[C@]1(OC(C)=O)CC[C@H]2[C@@H]3CCC4=C/C(=N/O)CC[C@@H]4[C@H]3CC[C@@]21CC [NORGESTIMATE] |

Assay: as §1, with “Z-002” for “Z-025”, “ERS12561802” for “ERS12561824”
Conditions: 2 µM

| Bacterial Biotransformation | SMILES |
| --- | --- |
| Compound NOT metabolized | COc1ccc2cc([C@H](C)C(=O)O)ccc2c1 [NAPROXEN] |
| Compound NOT metabolized | C#C[C@]1(OC(C)=O)CC[C@H]2[C@@H]3CCC4=C/C(=N/O)CC[C@@H]4[C@H]3CC[C@@]21CC [NORGESTIMATE] |
